1 compound from patent US7067551B2, “Deacetylase inhibitors” (Novartis AG, priority 2000, dated 2006) can be followed below.

Data set [1] has as its system HCT116 (colon tumor cell). Description: Monolayer cell growth inhibition, MTS assay. The format is cell-based. The following applies: Homo sapiens, HCT-116, HCT116, 72 hours compound treatment, lactate salts. An excerpt: (§1) Cell lines H1299 (human lung carcinoma cell) and HCT116 (colon tumor cell) are obtained from the American Type Culture Collection, Rockville, Md. The cell lines are free of Mycoplasma contamination (Rapid Detection System by Gen-Probe, Inc., San Diego, Calif.) and viral contamination (MAP testing by MA BioServices, Inc., Rockville, Md.). The cell lines are propagated and expanded in RPMI 1640 medium containing 10% heat-inactivated FBS (Life Technologies, Grand Island, N.Y.). Cell expansions for implantation are performed in cell factories (NUNC, purchased from Fisher Scientific, Springfield, N.J.). Cells are harvested at 50–90% confluency, washed once with HBSS (Hank's Balanced Salt Solution) containing 10% FBS, and suspended in 100% HBSS.
Cell proliferation is measured with a commercial MTS kit (Promega, Madision, Wis.) assay using an adaptation of published procedures, for example, that disclosed in Feasibility of drug screening with panels of human tumor cell lines using a microculture tetrazolium assay, Alley M C, et al., Cancer Res. 1988; 48:589–601. Cells are plated in 96-well tissue culture dishes, with top and bottom rows left empty. H1299 and HCT116 cells are suspended in complete media at a density of 5.3×10^3 and 3.6×10^3 cell/mL, respectively, and 190 μl are added per well. Each cell line is added to one half of the plate. Complete medium (200 μL) is added to the top and bottom rows. Twenty-four hours later, 10 μl of MTS solution is added to one of the plates to determine the activity at the time of compound addition (T0). The plate is incubated at 37° C. for 4 hours and the OD490 is measured on a Molecular Devices Thermomax at 490 nm using the Softmax program. The T0 plate serves as a reference for initial activity at the beginning of the experiment.
Five serial dilutions (1:4) of each compound are made in a 96-deep well plate with the highest concentrations on the edge of plate. Two cell lines are tested with two compounds per plate.0 Ten microliters of each of the five dilutions are added in triplicate and complete medium alone is added to columns six and seven. The plates are incubated at 37° C. for 72 hours. The MTS solution is added (as for the T0 plate) and read four hours later.
In order to analyze the data, the average background value (media alone) is subtracted from each experimental well; the triplicate values are averaged for each compound dilution. The following formulas are used to calculate percent growth.
The stock solution is diluted with 5% dextrose injection, USP, just prior to dosing.
On the technique in general: Tetrazolium assays rely on reduction of a dye to a coloured formazan, in cell work by metabolically active cells.

For data set [2], the system named is HDA partially purified from H1299 cells. Description: HDA enzyme assay, 3H-acetate release from acetylated histone H4 peptide. The format is biochemical, human. The following applies: HDA partially purified from H1299, 37° C. 1.5 hr.
Protocol: HDA is partially purified from H1299, human non-small cell lung carcinoma cells (obtained from American Type Culture Collection, 12301 Parklawn Drive, Rockville, Md. 20852, USA). Cells are grown to 70–80% confluence in RPMI media in the presence of 10% FCS, harvested and lysed by sonication. The lysate is centrifuged at 23,420 g for 10–15 min, the supernatant is applied to a Hiload 26/10 High performance Q-sepharose column (Amersham Pharmacia Biotech), and equilibrated with a buffer containing 20 mM Tris pH8.0, 1 mM EDTA, 10 mM NH4Cl2, 1 mM μ-Mercaptoethanol, 5% glycerol, 2 μg/mL aprotinin, 1 μg/mL leupeptin, and 400 mM PMSF. Proteins are eluted in 4 mL aliquots with a linear gradient from 0–500 mM NaCl in the above buffer at a flow rate of 2.5 mL/min. Each preparation of partially purified HDA enzyme is titrated to determine the optimal amount needed to obtain a signal to noise ratio of at least 5 to 1. […] The compounds are serially diluted in DMSO to generate stocks at 20-fold of the assay concentrations. Final concentrations of compounds in the assay are 10 μM, 2 μM, 400 nM, 80 nM, and 16 nM with the final percentage of DMSO in each enzyme reaction equaling 0.1%. Each concentration of compound is assayed in duplicate. The substrate used in the reaction is a peptide of amino acid sequence, [sequence], corresponding to the twenty-four N-terminal amino acids of human histone H4, biotinylated at the N-terminus and penta-acetylated, at each lysine residue with ^3H-acetate. To initiate the reaction, the substrate is diluted in 10 μL of Buffer A (100 mM Tris pH 8.0, 2 mM EDTA), added to the enzyme mixture and collected at the bottom of the deep well plate by centrifugation for 5 minutes at 1500 rpm. Following centrifugation, the mixture is incubated at 37° C. for 1.5 hr. The reaction is stopped by the addition of 20 μL of the Stop Buffer (0.5N HCl, 0.08M Acetic Acid). At this point, the assay proceeds to the robotic extraction phase or is frozen for several days at −80° C.
The extraction of enzymatically cleaved ^3H-acetate groups from the reaction mixture is achieved with the solvent TBME (t-butyl methyl ether) using the Tomtec Quadra 96 workstation. A program is written to add 200 μL of TBME to a 96 “deep well” plate. The workstation is programmed to aspirate 50 μL of air followed by 200 μL of TBME and finally another 25 μL of air, which is dispensed into the each well of the plate. The contents of the deep well were mixed thoroughly by pipetting 160 μL up and down 10 times. Before addition of TBME to the reaction mixture, it is necessary to “pre-wet” the pipette tips with TBME to prevent the solvent from dripping during the transfer to the deep well plate. The organic and aqueous phases in the deep well are separated by centrifugation at 1500 rpm for 5 min. Opti-Phase Supermix liquid scintillation cocktail (200 μL) (Wallac) is added to each well of the 96-well Trilux plate (Wallac). […] The Trilux plate is covered with clear film and read on a 1450 MicroBeta Trilux liquid scintillation and luminescence counter (Wallac) with a color/chemical quench and dpm correction.
In order to determine the IC50 values, the data are analyzed on a spreadsheet. The analysis requires a correction for the background luminescence that is accomplished by subtracting the dpm values of wells without ^3H substrate from the experimental wells. […]
The test system of data set [3] is HCT116 colon tumor cell line. The data set is described as follows: HCT116 tumor xenograft in athymic mice, antitumor activity. The format is in vivo. The conditions noted are these: Table B5, HCT116, 100 mg/kg i.v., 34th day. As to the method: as §1, with “The A549 non-small cell” for “Cell lines H1299 (human”, “human” for “carcinoma cell) and HCT116 (colon”, “cell line is purchased” for “cell) are obtained”, “line is” for “lines are”, “HBSS” for “HBSS (Hank's Balanced Salt Solution)”
(§2) Outbred athymic (nu/nu) female mice (“Hsd:Athymic Nude-nu” from Harlan Sprague Dawley, Indianapolis, Ind.) are anesthetized with Metofane (Mallinckrodt Veterinary, Inc., Mundelein, Ill.), and 100 μL of the cell suspension containing 1×10^7 cells is injected subcutaneously into the right axillary (lateral) region of each animal. Tumors are allowed to grow for about 20 days until a volume of ˜100 mm^3 is achieved. At this point, mice bearing tumors with acceptable morphology and size are sorted into groups of eight for the study. The sorting process produces groups balanced with respect to mean and range of tumor size. Antitumor activity is expressed as % T/C, comparing differences in tumor volumes for treatment group (T) to vehicle control group (C).
(§3) CMD1 is administered intravenously, once daily 5×/week for three weeks, at doses of 10, 25, 50, or 100 mg/kg. The final DMSO concentration is 10%. Each test group has eight mice. Tumors are measured, and individual animal body weights recorded.
(§4) Example B3 is repeated except the HCT116 colon tumor cell line is used in place of the A549 cell line. The HCT116 cell line is also obtained from American Type Culture Collection, Rockville, Md., and the cell line is free of Mycoplasma contamination and viral contamination.
(§5) Example B4 is repeated except the HCT116 colon tumor cell line is used in place of the A549 cell line. The HCT116 is also obtained from American Type Culture Collection, Rockville, Md., and the cell line is free of Mycoplasma contamination and viral contamination.

Data set [4] is described as follows: Body weight change of A549 tumor-bearing athymic mice. The format is in vivo. The conditions noted are these: 41st day, ± SEM. The method, then: as §2, §3
Example B3 repeated except CMD2 is used.

Data set [5] is described as follows: Body weight change of HCT116 tumor-bearing athymic mice. The following applies: 34th day, ± SEM. The format is in vivo. The method, then: as §2, §3, §4, §5
The next data set has as its system A549. The data set is described as follows: Annexin V / propidium iodide staining (apoptosis), fluorescence microscopy. The format is cell-based, human. The method, then:
(§6) Annexin V binding was used as a marker for the early stages of apoptosis. A549,HCT116 and Normal Dermal Human Fibroblasts (NDHF) cells are treated separately with four compounds (CMD1, CMD2, CMD3 and CMD4) for 24 or 48 hours, stained with annexin V and compared to cells treated similarly with vehicle (DMSO). Cells are examined by fluorescence microscopy. […] Viability is assessed by the counterstain, propidium iodide. Cells detected by red fluorescence are not viable.

The subject of the next data set is HCT116. Described as above. The format is cell-based, human. The method, then:
as §6

Data set [6] deals with Normal Dermal Human Fibroblasts (NDHF). The data set is described as above. The format is cell-based. The conditions noted are these: NDHF cells, 24 hour exposure. As to the method:
as §6

For data set [7], the system named is HCT116 colon tumor cell line. Description: HCT116 tumor xenograft in athymic mice, antitumor activity. The conditions noted are these: Table B5, HCT116, 50 mg/kg i.v., 34th day, seven mice. The format is in vivo.

pIC50: −log10 of the molar value.

As for `O=C(/C=C/c1ccc(CNCCc2c[nH]c3ccccc23)cc1)NO` [CMD1, N-hydroxy-3-[4-[[[2-(1H-indol-3-yl)-ethyl]-amino]methyl]phenyl]-2E-2-propenamide], the figures for the pIC50 in data set [1] and in data set [2] were 7.52 and 7.49, respectively. For the same compound, the “% T/C” value was found to be 18% in data set [3] and 25% in data set [7]. Also, the entries for the “Δ MEAN TUMOR VOLUME” value in [3] (± SEM) and in data set [7] (± SEM) were 140 ± 38 mm^3 and 186 ± 40 mm^3, respectively. The “Δ % BODY WEIGHT” value was “+1.3 ± 0.3%” in data set [4] (A549, 10 mg/kg i.v. once daily 5×/week for three weeks); −0.9 ± 0.3% in data set [4] (A549, 25 mg/kg i.v. once daily 5×/week for three weeks); −0.4 ± 0.3% in data set [4] (A549, 50 mg/kg i.v. once daily 5×/week for three weeks); “+0.4 ± 0.3%” in [4] (A549, 100 mg/kg i.v. once daily 5×/week for three weeks); −7.4 ± 0.8% in [5] (Table B5, HCT116, 50 mg/kg i.v., seven mice); −3.2 ± 0.4% in [5] (Table B5, HCT116, 100 mg/kg i.v.). The “cells exhibiting cell surface staining with annexin V” value with A549 (A549, 24 hour exposure) was “A small percentage”; with HCT116 (HCT116, 24 hour exposure), “the majority”. Also, the “cells staining with annexin V and/or propidium iodide” value is “the majority” in the data set on A549 (A549, 48 hour treatment) and “the majority” in the data set with HCT116 (HCT116, 48 hour treatment). Besides, the “annexin V staining” value in data set [6] was “do not show noticeable annexin V staining”.
